From ChEMBL document CHEMBL5614384, “Synthesis and antiproliferative activity of (-)-cleistenolide, (6S)-cleistenolide and 4-substituted cleistenolide analogues” (Bioorg Med Chem, 2024)
pIC50: −log10 of the molar value.

How the values were obtained:
HeLa [1] = assay: Antiproliferative activity against human HeLa cells assessed as inhibition of cell growth incubated for 72 hrs by MTT assay; assay type: functional, cell-based
[2] = Cytotoxicity against human MRC5 cells assessed as inhibition of cell growth incubated for 72 hrs by MTT assay; assay type: toxicity, cell-based; details: human, MRC5 cells
K562 [3] = assay: Antiproliferative activity against human K562 cells assessed as inhibition of cell growth incubated for 72 hrs by MTT assay; assay type: functional, cell-based; details: K562, 72 h
Jurkat = assay: Antiproliferative activity against human Jurkat cells assessed as inhibition of cell growth incubated for 72 hrs by MTT assay; assay type: functional, cell-based
Raji = assay: Antiproliferative activity against human Raji cells assessed as inhibition of cell growth incubated for 72 hrs by MTT assay; assay type: functional, cell-based
HL-60 = assay: Antiproliferative activity against human HL-60 cells assessed as inhibition of cell growth incubated for 72 hrs by MTT assay; assay type: functional, cell-based; details: HL-60, 72 h
MDA-MB-231 = assay: Antiproliferative activity against estrogen receptor negative human MDA-MB-231 cells assessed as inhibition of cell growth incubated for 72 hrs by MTT assay; assay type: functional, cell-based; details: MDA-MB-231, 72 h
A549 [4] = assay: Antiproliferative activity against human A549 cells assessed as inhibition of cell growth incubated for 72 hrs by MTT assay; assay type: functional, cell-based; details: A549, 72 h
MCF7 [5] = assay: Antiproliferative activity against estrogen receptor positive human MCF7 cells assessed as inhibition of cell growth incubated for 72 hrs by MTT assay; assay type: functional, cell-based; details: MCF7, 72 h
K562 [6] = assay: Potency index, ratio of cleistenolide IC50 to test compound IC50 for antiproliferative activity against human K562 cells assessed as inhibition of cell growth incubated for 72 hrs by MTT assay; assay type: functional
MCF7 [7] = assay: Potency index, ratio of cleistenolide IC50 to test compound IC50 for antiproliferative activity against human MCF7 cells assessed as inhibition of cell growth incubated for 72 hrs by MTT assay; assay type: functional
A549 [8] = assay: Potency index, ratio of doxorubicin IC50 to test compound IC50 for antiproliferative activity against human A549 cells assessed as inhibition of cell growth incubated for 72 hrs by MTT assay; assay type: functional
A549 [9] = assay: Potency index, ratio of cleistenolide IC50 to test compound IC50 for antiproliferative activity against human A549 cells assessed as inhibition of cell growth incubated for 72 hrs by MTT assay; assay type: functional
HeLa [10] = assay: Potency index, ratio of cleistenolide IC50 to test compound IC50 for antiproliferative activity against human HeLa cells assessed as inhibition of cell growth incubated for 72 hrs by MTT assay; assay type: functional

Compound	pIC50 (HeLa [1])	IC50 at 72 h [2] [µM]	pIC50 (K562 [3])	pIC50 (Jurkat)	pIC50 (Raji)	pIC50 (HL-60)	pIC50 (MDA-MB-231)	pIC50 (A549 [4])	pIC50 (MCF7 [5])	Ratio IC50 (K562 [6])	Ratio IC50 (MCF7 [7])	Ratio IC50 (A549 [8])	Ratio IC50 (A549 [9])	Ratio IC50 (HeLa [10])
CC(=O)O[C@@H](COC(=O)c1ccccc1)[C@H]1OC(=O)C=C[C@H]1OC(C)=O	5.17	98.2	5.25	4.81	4.88	5.01	4.62	4.79	4.82	–	–	–	–	–
CC(=O)OC[C@@H](O)[C@H]1OC(=O)C=C[C@H]1O	5.27	> 100	5.93	4.76	4.70	5.02	4.34	4.90	5.34	5	–	–	–	–
CC(=O)O[C@H](COC(=O)c1ccccc1)[C@H]1OC(=O)C=C[C@H]1OC(=O)/C=C/c1ccc(F)cc1	4.75	> 100	5.17	4.54	4.58	4.79	4.75	4.06	5.28	–	–	–	–	–
CC(=O)O[C@H](COC(=O)c1ccccc1)[C@H]1OC(=O)C=C[C@H]1OC(=O)C(c1ccccc1)c1ccccc1	5.01	> 100	5.20	4.84	4.85	5.33	4.75	4.96	5.55	–	>9	–	–	–
COc1cccc(C(=O)O[C@@H]2C=CC(=O)O[C@@H]2[C@@H](COC(=O)c2ccccc2)OC(C)=O)c1	5.03	> 100	5.80	4.60	4.60	5.77	4.59	4.92	5.06	5	–	–	–	–
CC(=O)O[C@@H]1C=CC(=O)O[C@@H]1[C@@H](COC(=O)c1ccccc1)OC(C)=O	–	> 100	–	–	–	–	–	–	–	–	–	–	–	–
COc1ccc(/C=C/C(=O)O[C@@H]2C=CC(=O)O[C@@H]2[C@@H](COC(=O)c2ccccc2)OC(C)=O)cc1	4.81	> 100	5.89	4.62	4.59	4.81	4.57	4.38	4.89	5	–	–	–	–
CC(=O)O[C@H](COC(=O)c1ccccc1)[C@H]1OC(=O)C=C[C@H]1OC(=O)/C=C/c1ccc([N+](=O)[O-])cc1	4.88	> 100	5.24	4.63	4.60	4.61	4.81	5.59	4.67	–	–	~2	>6	–
CC(=O)OC[C@@H](OC(C)=O)[C@H]1OC(=O)C=C[C@H]1OC(=O)c1ccccc1	4.97	> 100	5.58	4.74	4.97	5.36	4.80	4.64	5.30	–	–	–	–	–
CC(=O)O[C@H](COC(=O)c1ccccc1)[C@H]1OC(=O)C=C[C@H]1O[Si](c1ccccc1)(c1ccccc1)C(C)(C)C	5.47	> 100	5.23	4.71	4.60	5.25	5.08	4.51	5.03	–	–	–	–	>2
